Test results taken from paper PMC2191741 (The Journal of Experimental Medicine, 1994).

B1: mAb II-481: IgG-2b mouse mAb directed at gE of HSV-1 (antibody, V domains shown)
VH: GILQPSQTLSLTCSFSGFSLTTYGIGVGWIRQPSGKGLEWLAHIWWNDNKFYNTVLKSRLTISRDTSNNQVFLRIASMDTADTATYYCARMRDGAWFAYWGQGTLVTVSA
VL: SLAVSAGEKVTMTCKSSQSVLYSSDHKNYLAWYQQKPGQSPKLLIYWASTRESGVPDRFTGSGSGTDFTLTINNVQTEDLAVYFCHQYLSSFTFGGGTKLEIQ

Tests used:
[1] = tested on: human polyclonal IgM RF binding to mAb II-481; conditions: text summary across the individual polyclonal IgM RFs tested
gE of HSV-1 = test: ELISA of hybridoma supernatants with isolated gE and whole HSV-1; type: binding; conditions: hybridoma supernatant; isolated gE 5 ug/ml

Row | Molecule | inhibition of RF binding to mAb II-481 by single inhibitor [1] | reactivity with isolated gE and whole HSV-1 by ELISA (gE of HSV-1)
1 | HIWWNDN | 80-100% | –
2 | SGVPDRF | 62-90% | –
3 | CIKVAVS [reference compound] | No inhibition | –
4 | B1 | complete inhibition | strong anti-gE specificity
